Measurements published in US10562869B2, “Oxadiazole compounds” (REMYND NV, priority 2014, dated 2020).

Columns and labels:
INS-1E cells = test: Cytokine-induced caspase-3/7 activation in INS-1E cells (beta cell stress/apoptosis model, Caspase-Glo 3/7); assay type: cell-based; settings: Rattus norvegicus, cytokine mix (IFN-γ, IL-1β, TNF-α), 24 hours, caspase 3/7 activity, read-out: CYT EC50
Source text: The INS-1E cell line, a rat insulinoma cell line, has been characterized extensively. INS-1E cells respond to glucose by secreting insulin and, unlike most other immortalized β-cell lines, they do this in a consistent manner over time. The cells are sensitive to hyperglycemia-, free fatty acid (FFA)-, and cytokine-induced stress. Prolonged stress ultimately leads to induction of apoptotic pathways and, if stress is not counter-acted, to apoptosis. Caspase-3 and -7 play a central role downstream where various apoptotic pathways merge. As such, activation (i.e. cleavage) of these caspases forms a relevant primary read-out to evaluate protective activity of compounds against stress-induced apoptosis.
To evaluate the efficacy of different compounds to prevent induction of apoptosis, an in vitro screen was developed in which INS-1E cells were exposed to a cytokine mix (IFN-γ, 5 ng/ml; IL-1β, 20 pg/ml; TNF-α, 0.25 ng/ml). The degree of induction of apoptosis was evaluated using a substrate for cleaved caspase-3 and -7, i.e. a proluminescent caspase-3/7 DEVD aminoluciferin substrate with a thermostable luciferase (Caspase-Glo® 3/7 assay; Promega, cat. G8092).
On day 0, INS-1E cells were plated in a white-walled 96-well microplate (Greiner, cat. 655098) at 20,000 cells per well in 100 μl complete medium (RPMI containing 11 mM glucose supplemented with 5% FCS, 100 IU/ml penicillin, 100 μg/ml streptomycin, 10 mM HEPES, 1 mM Sodium Pyruvate and 50 μM 2-Mercapto-ethanol). On day 2, 100 μl medium containing cytokines and compound dissolved in DMSO was added to the cells. Wells without cytokines containing DMSO and wells with cytokines and DMSO were included to evaluate the degree of caspase 3/7 activation by the cytokine mix. After 24 hours exposure to cytokines and/or compound, Caspase-Glo® 3/7 reagent was added to the cells and caspase activity was determined by measuring luminescence.
To evaluate compound efficacy, the “toxicity window” was calculated by subtracting caspase activity of wells without stressor from activity of wells with stressor but without compound. The amount of caspase activity in the latter wells was normalized to 1 and used as reference. Subsequently, caspase activity in the wells with stressor and varying concentrations of compound was calculated relative to the wells without compound. Plotting caspase activity vs the log 10 of the concentration of compound permitted calculation of the EC50 values for the compounds which typically lied between 0.0001 and 10 μM. Compounds with an EC50<10 μM were considered active.

M17_3SYN cells = test: Paraquat-induced cytotoxicity (LDH) in α-synuclein over-expressing M17_3SYN neuroblastoma cells; assay type: cell-based, human; settings: Homo sapiens, Neuroblastoma cell, 48 h, toxicity inhibition (LDH) in M17_3SYN cells challenged with 6 mM paraquat, 2 days; read-out: SYN EC50
Method in brief: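 Human BE-M17 neuroblastoma cells stably overexpressing wild-type α-synuclein challenged with paraquat (final 6 mM) for 2 days at 37 °C alongside compounds over a concentration range. Cytotoxicity as LDH released relative to total LDH; EC50 from dose-dependent inhibition curve.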

M17_3TAU(P301L) cells = test: Retinoic acid-induced cytotoxicity (LDH) in TAU-P301L expressing M17_3TAU(P301L) neuroblastoma cells; assay type: cell-based; settings: Homo sapiens, Neuroblastoma cell, 168 h; toxicity inhibition (LDH) in M17_3TAU(P301L) cells challenged with retinoic acid, 7 days
Method in brief: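 Cells in 1% FCS medium challenged with RA (3.75 μM added in equal volume of serum-free medium) plus compound for 7 days at 37 °C. Cytotoxicity read as released LDH relative to total LDH; EC50 from dose-dependent reduction in toxicity.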

Structure (SMILES)	EC50 (INS-1E cells) [nM]	EC50 (M17_3SYN cells) [nM]	EC50 (M17_3TAU(P301L) cells) [nM]
CCOc1ccc(S(=O)(=O)N2CCN(c3nc(C4(c5ccccc5)CC4)no3)CC2)cc1 [Cmpd121, 1-(4-Ethoxy-benzenesulfonyl)-4-[3-(1-phenyl-cyclopropyl)-[1,2,4]oxadiazol-5-yl]-piperazine]	186	10	–
CCOc1ccc(S(=O)(=O)N2CCN(c3nc(C4(c5ccc(F)cc5)CC4)no3)CC2)cc1 [Cmpd106, 1-(4-Ethoxy-benzenesulfonyl)-4-{3-[1-(4-fluoro-phenyl)-cyclopropyl]-[1,2,4]oxadiazol-5-yl}-piperazine]	99	65	–
COc1ccc(S(=O)(=O)N2CCN(c3nc(C4(c5ccc(F)cc5)CC4)no3)CC2)cc1 [Cmpd105, 1-{3-[1-(4-Fluoro-phenyl)-cyclopropyl]-[1,2,4]oxadiazol-5-yl}-4-(4-methoxy-benzenesulfonyl)-piperazine]	27	9	–
CSc1ccc(S(=O)(=O)N2CCN(c3nc(C(C)(C)c4ccc(F)cc4)no3)CC2)cc1 [Cmpd116, 1-{3-[1-(4-Fluoro-phenyl)-1-methyl-ethyl]-[1,2,4]oxadiazol-5-yl}-4-(4-methylsulfanyl-benzenesulfonyl)-piperazine]	26	7	–
COc1ccc(S(=O)(=O)N2CCN(c3nc(C4(c5cccc(Cl)c5)CC4)no3)CC2)cc1 [Cmpd134, 1-{3-[1-(3-Chloro-phenyl)-cyclopropyl]-[1,2,4]oxadiazol-5-yl}-4-(4-methoxy-benzenesulfonyl)-piperazine]	16	2	–
COc1ccc(S(=O)(=O)N2CCN(c3nc(C(C)(C)c4ccc(F)cc4)no3)CC2)cc1 [Cmpd113, 1-{3-[1-(4-Fluoro-phenyl)-1-methyl-ethyl]-[1,2,4]oxadiazol-5-yl}-4-(4-methoxy-benzenesulfonyl)-piperazine]	1	8	–
CSc1ccc(S(=O)(=O)N2CCN(c3nc(C(F)(F)c4ccccc4)no3)CC2)cc1 [Cmpd157, 1-[3-(Difluoro-phenyl-methyl)-[1,2,4]oxadiazol-5-yl]-4-(4-methylsulfanyl-benzenesulfonyl)-piperazine]	498	4	–
CSc1ccc(S(=O)(=O)N2CCN(c3nc(C4C[C@@H]5CC[C@H]4C5)no3)CC2)cc1 (stereo partly drawn) [Cmpd191, 3-((1S,4R)-bicyclo[2.2.1]heptan-2-yl)-5-(4-((4-(methylthio)phenyl)sulfonyl)piperazin-1-yl)-1,2,4-oxadiazole]	554	109	–
COc1ccc(S(=O)(=O)N2CCN(c3nc(COCC4CC4)no3)CC2)cc1 [Cmpd203, 3-((Cyclopropylmethoxy)methyl)-5-(4-((4-methoxyphenyl)sulfonyl)piperazin-1-yl)-1,2,4-oxadiazole]	153	8	–
CSc1ccc(S(=O)(=O)N2CCC3(CC2)CN(c2nc(CC(F)(F)F)no2)C3)cc1 [Cmpd215, 5-(7-((4-(Methylthio)phenyl)sulfonyl)-2,7-diazaspiro[3.5]nonan-2-yl)-3-(2,2,2-trifluoroethyl)-1,2,4-oxadiazole]	145	274	–
COc1ccc(S(=O)(=O)N2CCC3(CC2)CN(c2nc(CC(F)(F)F)no2)C3)cc1 [Cmpd214, 5-(7-((4-Methoxyphenyl)sulfonyl)-2,7-diazaspiro[3.5]nonan-2-yl)-3-(2,2,2-trifluoroethyl)-1,2,4-oxadiazole]	55	164	–
CSc1ccc(S(=O)(=O)N2CCN(c3nc(C4(c5ccc(Cl)cc5)CC4)no3)CC2)cc1 [Cmpd141, 1-{3-[1-(4-Chloro-phenyl)-cyclopropyl]-[1,2,4]oxadiazol-5-yl}-4-(4-methylsulfanyl-benzenesulfonyl)-piperazine]	19	12	–
CSc1ccc(S(=O)(=O)N2CCN(c3nc(C4(c5cccc(Cl)c5)CC4)no3)CC2)cc1 [Cmpd137, 1-{3-[1-(3-Chloro-phenyl)-cyclopropyl]-[1,2,4]oxadiazol-5-yl}-4-(4-methylsulfanyl-benzenesulfonyl)-piperazine]	9	7	–
COc1ccc(S(=O)(=O)N2CCC3(CC2)CN(c2nc(C4(c5ccc(F)cc5)CC4)no2)C3)cc1 [Cmpd213, 3-(1-(4-Fluorophenyl)cyclopropyl)-5-(7-((4-methoxyphenyl)sulfonyl)-2,7-diazaspiro[3.5]nonan-2-yl)-1,2,4-oxadiazole]	10	360	–
COc1ccc(S(=O)(=O)N2CCN(c3nc(C(F)(F)c4ccc(F)cc4)no3)CC2)cc1 [Cmpd146, 1-{3-[Difluoro-(4-fluoro-phenyl)-methyl]-[1,2,4]oxadiazol-5-yl}-4-(4-methoxy-benzenesulfonyl)-piperazine]	75	8	–
O=S(=O)(c1ccc(OC(F)F)cc1)N1CCN(c2nc(C3(c4cccc(Cl)c4)CC3)no2)CC1 [Cmpd136, 1-{3-[1-(3-Chloro-phenyl)-cyclopropyl]-[1,2,4]oxadiazol-5-yl}-4-(4-difluoromethoxy-benzenesulfonyl)-piperazine]	24	8	–
CSc1ccc(S(=O)(=O)N2CCN(c3nc(C(F)(F)c4ccc(Cl)cc4)no3)CC2)cc1 [Cmpd145, 1-{3-[(4-Chloro-phenyl)-difluoro-methyl]-[1,2,4]oxadiazol-5-yl}-4-(4-methylsulfanyl-benzenesulfonyl)-piperazine]	82	15	–
COc1ccc(S(=O)(=O)N2CCN(c3nc(C4(c5ccccc5)CC4)no3)CC2)cc1 [Cmpd120, 1-(4-Methoxy-benzenesulfonyl)-4-[3-(1-phenyl-cyclopropyl)-[1,2,4]oxadiazol-5-yl]-piperazine]	40	4	–
O=S(=O)(c1ccc(OC(F)F)cc1)N1CCN(c2nc(C3(c4ccccc4)CC3)no2)CC1 [Cmpd122, 1-(4-Difluoromethoxy-benzenesulfonyl)-4-[3-(1-phenyl-cyclopropyl)-[1,2,4]oxadiazol-5-yl]-piperazine]	43	9	–
CSc1ccc(S(=O)(=O)N2CCN(c3nc(C(F)(F)c4ccc(F)cc4)no3)CC2)cc1 [Cmpd151, 1-{3-[Difluoro-(4-fluoro-phenyl)-methyl]-[1,2,4]oxadiazol-5-yl}-4-(4-methylsulfanyl-benzenesulfonyl)-piperazine]	41	13	–
COc1ccc(S(=O)(=O)N2CCN(c3nc(C(C)(C)c4ccnc(C)c4)no3)CC2)cc1 [Cmpd195, 5-(4-((4-Methoxyphenyl)sulfonyl)piperazin-1-yl)-3-(2-(2-methylpyridin-4-yl)propan-2-yl)-1,2,4-oxadiazole]	52	70	–
CCOc1ccc(S(=O)(=O)N2CCN(c3nc(C4(c5cccc(Cl)c5)CC4)no3)CC2)cc1 [Cmpd135, 1-{3-[1-(3-Chloro-phenyl)-cyclopropyl]-[1,2,4]oxadiazol-5-yl}-4-(4-ethoxy-benzenesulfonyl)-piperazine]	129	28	–
COc1ccc(S(=O)(=O)N2CCN(c3nc(COc4ccc(F)cc4)no3)CC2)cc1 [Cmpd206, 3-((4-Fluorophenoxy)methyl)-5-(4-((4-methoxyphenyl)sulfonyl)piperazin-1-yl)-1,2,4-oxadiazole]	189	22	–
CSc1ccc(S(=O)(=O)N2CCN(c3nc(C4(c5ccccc5)CC4)no3)CC2)cc1 [Cmpd126, 1-(4-Methylsulfanyl-benzenesulfonyl)-4-[3-(1-phenyl-cyclopropyl)-[1,2,4]oxadiazol-5-yl]-piperazine]	28	7	–
COc1cc(CCN2CCN(c3nc(C4(c5ccccc5)CC4)no3)CC2)ccn1 [Cmpd131, 5-(4-(2-(2-Methoxypyridin-4-yl)ethyl)piperazin-1-yl)-3-(1-phenylcyclopropyl)-1,2,4-oxadiazole]	–	–	135
